Test results taken from ChEMBL document CHEMBL3508693 (2016).

Experiments:
[1] = Excretion (48h) of radioactivity in faeces following oral administration of [14C] aliskiren hemifumarate at 100 mg.Kg-1 level in rat; assay type: ADME, organism-based, Lister-Hooded, Feces; settings: in vivo
[2] = Excretion of radioactivity (48-72h) in urine following single intravenous dose of 10 mg.Kg-1 [14C] aliskiren hemifumarate in mouse; assay type: ADME, organism-based, TgRasH2; settings: in vivo
[3] = Excretion of radioactivity (48-72h) in faeces following single oral dose of 500 mg.Kg-1 [14C] aliskiren hemifumarate in mouse; assay type: ADME, organism-based, TgRasH2, Feces; settings: in vivo
[4] = Excretion of radioactivity (0-72h) in faeces following single intravenous dose of 10 mg.Kg-1 [14C] aliskiren hemifumarate in mouse; assay type: ADME, organism-based, TgRasH2, Feces; settings: in vivo
[5] = AUC (0-96h) of total radioactivity following oral administration of [14C] aliskiren hemifumarate at 100 mg.Kg-1 level in rat; assay type: ADME, organism-based, Albino HAN:WIST, Plasma; settings: in vivo
[6] = biological target: Cytochrome P450 3A4/3A5 (Homo sapiens, UniProt P08684+P20815); assay: Estimated contribution of CYP3A4/5 to oxidative metabolism of [14C] aliskiren hemifumarate based on studies with microsomes from baculovirus-infected insect cells expressing recombinant human CYP450s and studies with pooled human liver microsomes from 22 donors; assay type: ADME, Microsome
[7] = % of radioactivity (24h) recovered in urine following single intravenous administration of 10 mg.Kg-1 [14C] aliskiren hemifumarate in male rat; assay type: ADME, organism-based, HAN:WIST(SPF); settings: in vivo
[8] = % of radioactivity (48h) recovered in gastrointestinal tract of receiver rat following duodenal infusion of radioactivity through bile from donor rat treated with single intravenous administration of 10 mg.Kg-1 [14C] aliskiren hemifumarate; assay type: ADME, organism-based, HAN:WIST(SPF); settings: in vivo
[9] = Mean excretion of radioactivity (72-96h) in urine and faeces following single intravenous dose of 10 mg.Kg-1 [14C] aliskiren hemifumarate in rat; assay type: ADME, organism-based, Albino HAN:WIST, Urine/Feces; settings: in vivo
[10] = Mean excretion of radioactivity (0-96h) in urine and faeces following single intravenous dose of 10 mg.Kg-1 [14C] aliskiren hemifumarate in rat; assay type: ADME, organism-based, Albino HAN:WIST, Urine/Feces; settings: in vivo
[11] = Cmax of radioactivity following repeated oral administration of [14C] aliskiren hemifumarate at 100 mg.Kg-1 level studied after 2h of dosing on day 10 in rat; assay type: ADME, organism-based, Albino HAN:WIST; settings: in vivo, read-out: Cmax(10)
[12] = AUC/dose (0-168h) of total radioactivity following single oral administration of [14C] aliskiren hemifumarate at 3 mg.Kg-1 level in marmoset; assay type: ADME, organism-based, Callithrix jacchus, Plasma; settings: in vivo
[13] = AUC of aliskiren hemifumarate following single dosing of SPP100B oral solution at 40 mg level studied on day 1 in men; assay type: ADME, organism-based; settings: male, human, plasma
[14] = AUC of aliskiren hemifumarate following single dosing of SPP100B oral solution at 80 mg level studied on day 1 in men; assay type: ADME, organism-based; settings: male, human, plasma
[15] = AUC of aliskiren hemifumarate following single dosing of SPP100B oral solution at 160 mg level studied on day 1 in men; assay type: ADME, organism-based; settings: male, human, plasma
[16] = Cmax (0-96h) of unlabeled aliskiren hemifumarate following intravenous administration of aliskiren hemifumarate at 10 mg.Kg-1 level in rat; assay type: ADME, organism-based; settings: Albino HAN:WIST, plasma
[17] = AUC (0-96h) of unlabeled aliskiren hemifumarate following oral administration of aliskiren hemifumarate at 100 mg.Kg-1 level in rat; assay type: ADME, organism-based; settings: Albino HAN:WIST, plasma
[18] = Effect of 2 week oral dosing of aliskiren hemifumarate at 50 mg.Kg-1 level on blood urea nitrogen level in male Callithrix jacchus; assay type: toxicity, organism-based, Plasma; settings: marmoset, 336 h
[19] = Cmax of aliskiren hemifumarate following 2 week oral dosing of aliskiren hemifumarate at 10 mg.Kg-1 level studied on day 1 in male Callithrix jacchus; assay type: ADME, organism-based; settings: marmoset, plasma
[20] = Cmax of aliskiren hemifumarate following 2 week oral dosing of aliskiren hemifumarate at 10 mg.Kg-1 level studied on […] in male Callithrix jacchus; assay type: ADME, organism-based; settings: marmoset, plasma
[21] = Cmaxspec of aliskiren hemifumarate following 2 week oral dosing of aliskiren hemifumarate at 100 mg.Kg-1 level studied on day 1 in female Callithrix jacchus; assay type: ADME, organism-based, Plasma; settings: marmoset, in vivo, 336 h
[22] = AUC/dose (0-96h) of unlabeled aliskiren hemifumarate following oral administration of aliskiren hemifumarate at 100 mg.Kg-1 level in rat; assay type: ADME, organism-based, Albino HAN:WIST, Plasma; settings: in vivo
[23] = Effect of 4 week oral dietary dosing of aliskiren hemifumarate at 1000 mg.Kg-1 level on spermatogenesis in male mouse; assay type: toxicity, organism-based, CB6F1-TGrasH2, Testis; settings: in vivo, 672 h
[24] = Bioavailability (0-96h) of unlabeled aliskiren hemifumarate following oral administration of aliskiren hemifumarate at 100 mg.Kg-1 level in rat; assay type: ADME, organism-based; settings: Albino HAN:WIST, plasma
[25] = Cmax/dose of aliskiren hemifumarate following 4 week oral dietary dosing of aliskiren hemifumarate at 1000 mg.Kg-1 level in female mouse; assay type: ADME, organism-based, CB6F1-TGrasH2; settings: in vivo, 672 h
[26] = Cmaxspec of aliskiren hemifumarate following 2 week oral dosing of aliskiren hemifumarate at 50 mg.Kg-1 level studied on day 14 in female Callithrix jacchus; assay type: ADME, organism-based, Plasma; settings: marmoset, in vivo, 336 h
[27] = AUC (0-24h)/dose of aliskiren hemifumarate following 4 week oral dietary dosing of aliskiren hemifumarate at 500 mg.Kg-1 level in female mouse; assay type: ADME, organism-based, CB6F1-TGrasH2, Plasma; settings: in vivo
[28] = AUCspec of aliskiren hemifumarate following 2 week oral dosing of aliskiren hemifumarate at 50 mg.Kg-1 level studied on day 14 in female Callithrix jacchus; assay type: ADME, organism-based, Plasma; settings: marmoset, in vivo, 336 h
[29] = Tmax of aliskiren hemifumarate following repeated oral administration of [14C] aliskiren hemifumarate at 100 mg.Kg-1 level studied after 2h of dosing on day 1 in rat; assay type: ADME, organism-based, Albino HAN:WIST; settings: in vivo
[30] = Elimination half-life of aliskiren hemifumarate following repeated oral administration of [14C] aliskiren hemifumarate at 100 mg.Kg-1 level studied in rat; assay type: ADME, organism-based, Albino HAN:WIST; settings: in vivo
[31] = Cmax (0-168h) of unlabeled aliskiren hemifumarate following single oral administration of aliskiren hemifumarate at 3 mg.Kg-1 level in marmoset; assay type: ADME, organism-based, Callithrix jacchus, Plasma; settings: in vivo
[32] = biological target: T1, CYP2A6 (Homo sapiens, UniProt P11509); assay: Inhibitory activity of 200 uM SPP100 on 37 Pmoles of cDNA-derived CYP2A6 enzyme in microsome prepared from human lymphoblastoid cell line; assay type: ADME, microsomes; design: conc 200 uM, interact cpd conc 3 uM; settings: probe coumarine
T1 sequence (P11509 whole entry): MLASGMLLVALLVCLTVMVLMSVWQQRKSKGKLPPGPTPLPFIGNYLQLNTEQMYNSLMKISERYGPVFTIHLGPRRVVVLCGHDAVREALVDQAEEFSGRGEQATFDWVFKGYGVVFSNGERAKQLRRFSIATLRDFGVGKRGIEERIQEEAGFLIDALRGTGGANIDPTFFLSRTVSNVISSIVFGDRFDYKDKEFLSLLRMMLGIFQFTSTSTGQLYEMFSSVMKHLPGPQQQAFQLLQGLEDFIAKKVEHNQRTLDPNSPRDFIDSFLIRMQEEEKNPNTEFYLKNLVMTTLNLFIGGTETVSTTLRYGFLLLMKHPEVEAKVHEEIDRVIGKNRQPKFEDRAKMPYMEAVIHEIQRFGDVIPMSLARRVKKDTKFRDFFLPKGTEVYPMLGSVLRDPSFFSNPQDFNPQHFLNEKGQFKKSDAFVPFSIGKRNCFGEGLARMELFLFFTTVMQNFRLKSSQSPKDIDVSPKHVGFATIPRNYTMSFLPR

[33] = biological target: CYP2C9 (Homo sapiens, UniProt P11712); assay: Inhibitory activity of 200 uM SPP100 on 201 Pmoles of cDNA-derived CYP2C9 enzyme in microsome prepared from human lymphoblastoid cell line; assay type: ADME, microsomes; design: conc 200 uM, interact cpd conc 6 uM; settings: probe diclofenac
Sequence of CYP2C9 (P11712 whole entry): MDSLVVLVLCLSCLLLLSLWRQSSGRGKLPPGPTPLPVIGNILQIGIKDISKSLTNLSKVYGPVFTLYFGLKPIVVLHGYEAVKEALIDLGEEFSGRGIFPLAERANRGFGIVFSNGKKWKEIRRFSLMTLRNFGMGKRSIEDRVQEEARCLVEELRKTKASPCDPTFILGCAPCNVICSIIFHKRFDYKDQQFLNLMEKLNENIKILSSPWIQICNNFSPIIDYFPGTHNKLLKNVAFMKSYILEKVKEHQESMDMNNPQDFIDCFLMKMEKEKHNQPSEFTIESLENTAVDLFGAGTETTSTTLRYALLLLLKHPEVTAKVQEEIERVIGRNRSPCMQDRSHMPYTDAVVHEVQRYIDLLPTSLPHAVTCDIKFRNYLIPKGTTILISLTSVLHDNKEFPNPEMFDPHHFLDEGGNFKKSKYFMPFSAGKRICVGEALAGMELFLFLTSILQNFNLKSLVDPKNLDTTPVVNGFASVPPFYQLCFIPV

For COCCCOc1cc(C[C@@H](C[C@H](N)[C@@H](O)C[C@H](C(=O)NCC([14CH3])([14CH3])C(N)=O)C(C)C)C(C)C)ccc1OC.O=C(O)/C=C/C(=O)O, the Radiolabel recovery [1] was 95.25%, the Radiolabel recovery [2] was 8.99% and the Radiolabel recovery [3] was 0.16%. The Radiolabel recovery [4] was 91.1%, the AUC [5] was 5.38 µM·h and the AUC ([5]; iv, 10 mg/kg) was 8.08 µM·h. The Activity [6] was 99.6%, the Radiolabel recovery [7] was 6.2% and the Radiolabel recovery [8] was 59.8%. The Radiolabel recovery [9] was 2.24%, the Radiolabel recovery [10] was 94.8% and the Cmax [11] was 473 nM. For the same compound, the AUC normalised [12] was 1.61 (umol.h/L)/(mg/kg).

With COCCCOc1cc(C[C@@H](C[C@H](N)[C@@H](O)C[C@H](C(=O)NCC(C)(C)C(N)=O)C(C)C)C(C)C)ccc1OC.COCCCOc1cc(C[C@@H](C[C@H](N)[C@@H](O)C[C@H](C(=O)NCC(C)(C)C(N)=O)C(C)C)C(C)C)ccc1OC.O=C(O)/C=C/C(=O)O [ALISKIREN FUMARATE] the AUC [13] was 28.5 ng·h/mL, the AUC [14] was 96.4 ng·h/mL and the AUC [15] was 215 ng·h/mL. It also gave a Cmax [16] of 29200 nM, an AUC(0-t) at 96 h [17] of 3.01 µM·h and a BUN_CHANGE_BY [18] of 105%. For the same compound, the Cmax [19] was 3960 ng/mL, the Cmax [20] was 5770 ng/mL and the Cmax normalised [21] was 0.079 (ug/ml)/(mg/kg). For the same compound, the AUC normalised [22] was 0.03 (umol.h/L)/(mg/kg), the Change in spermatogenesis [23] was “OUTCOME = No abnormalities. No animals died during the study” and the bioavailability [24] was 2.4%. The Cmax normalised [25] was 0.167 (ng/mL)/(mg/kg/day), the Cmax normalised [26] was 0.202 (ug/ml)/(mg/kg) and the AUC normalised [27] was 1.71 ((ng/mL).hours)/(mg/kg/day). The AUC normalised [28] was 2.18 ((ug.h.ml-1)/(mg/kg), the “Tmax(1)” value [29] was 2 h and the t1/2 [30] was 39.5 h. For the same compound, the Cmax [31] was 395 nM.

Compound COCCCOc1cc(C[C@@H](C[C@H](N)[C@@H](O)C[C@H](C(=O)NCC(C)(C)C(N)=O)C(C)C)C(C)C)ccc1OC has an inhibition at 200 µM [32] of 2.6% and an inhibition at 200 µM [33] of 23%.
